From PMC10892423 (Pharmaceutics, 2024) come the findings set out here.

By IC50 is commonly meant the concentration at which inhibition is half-maximal. A word on the MIC: it is the lowest concentration found to suppress growth.

The test system of data set [1] is efflux pump of PA-038blaNDM. Description: Inhibition of efflux pumps: EtBr accumulation/efflux. It is filed as cell-based, Pseudomonas aeruginosa. The following applies: 8 mg/L of compound. As for the experimental part:
The accumulation of EtBr inside the NDM-producing (PA-038blaNDM) P. aeruginosa clinical isolates was monitored as previously described. Briefly, the P. aeruginosa strain was grown in 5 mL of LB medium until it reached the mid-log phase, and the bacteria were centrifuged at 3500 rpm for 15 min. The resulting pellet was washed twice with an equal volume of PBS. The concentration of the bacterial suspension was adjusted (OD600 = 0.3) and added to each well of a flat-bottomed 96-well black plate ([…]). After the addition of glucose (4 µL) to the cellular suspension at a final concentration of 0.4% (w/v), 4 µL of the title compound or positive control CCCP was added to the plate. Finally, EtBr (10 µL) was also added to each well at a final concentration of 1 µg/mL, and the plate was incubated at 37 °C for 60 min, during which time fluorescence emission from EtBr was recorded (λex 480 nm/λem 630 nm) with a 2-min interval, using a Cytation 5 imaging multi-mode reader (BioTek Instruments, Inc., Winooski, VT, USA).

For data set [2], the system named is human liver (HepG2) cell line. Kind of data set: HepG2 cell viability. As to conditions: up to 64 mg/L, 24 h exposure. It is filed as cell-based. As for the experimental part: Concentration of 27 (mg/L)
Figure S1. Cell viability of human hepatoma HepG2 cells presented as percentage of
control after 24 h exposure to different concentrations of 27. The data represent the
average values of three experiments (± SD).

Data set [3] concerns the target T1, NDM-1 (Klebsiella pneumoniae, UniProt C7C422).
T1 construct: purchased RayBiotech, Inc. 230-00554
Kind of data set: β-lactamase inhibition, imipenem hydrolysis. The class given is biochemical. As to conditions: imipenem substrate; read-out: β-Lactamases, IC50 NDM-1. An excerpt:
(§1) Recombinant AmpC from Escherichia coli was produced according to a previously reported protocol. KPC-2 and NDM-1 […] were purchased from LifeSpan Biosciences, Inc. (Lynnwood, WA, USA) (LS-G26598) and RayBiotech, Inc. (Peachtree Corners, GA, USA) (230-00554), respectively. Genes encoding OXA-48 (residues 23–265) and VIM-2 (residues 27–266) were custom-synthesized (Bioneer Inc., Seoul, Republic of Korea) and expressed as previously described. The β-lactamase inhibitory activity of the title compounds was then determined according to the previously reported methods. Briefly, equal volumes (100 μL) of the title compounds (70–0.1 μM in PBS) and diluted enzyme stock were mixed (final concentration 2% of DMSO in 200 μL) in 96-well plates, which were then incubated at 37 °C for 20 min. The incubated mixture was added to each well containing substrates (nitrocefin for AmpC, KPC-2, OXA-48, and VIM-2; and imipenem for NDM-1) of final concentrations of 70 μM for nitrocefin and 100 μM for imipenem. Substrate hydrolysis was monitored at 486 nm (nitrocefin) or 300 nm (imipenem) for 15 min, using a Cytation 5 imaging multimode reader (BioTek Instruments Inc., Winooski, VT, USA). At the plateau level of hydrolysis, the corresponding rates of hydrolysis were compared to those obtained without inhibitors (100%) to determine the percentage of enzyme inhibition at each concentration of the title compounds. The IC50 values of the compounds were derived from sigmoidal dose–response curves, using GraphPad Prism 5 (GraphPad Software, Boston, MA, USA).

For data set [4], the system named is MBL-producing P. aeruginosa clinical isolates. Description: Broth microdilution checkerboard synergy assay (MIC of ATM in combination). It is filed as cell-based, Pseudomonas aeruginosa. Background: Dilution methods test growth across graded concentrations, often in twofold steps.
Data set [5] deals with T2, VIM-2 (Escherichia coli, UniProt Q5U7L7).
T2 construct: Genes encoding OXA-48 (residues 23–265) and VIM-2 (residues 27–266) were custom-synthesized; made in house
Description: β-lactamase inhibition, nitrocefin hydrolysis. It is filed as biochemical. As to conditions: nitrocefin substrate; read-out: β-Lactamases, IC50 VIM-2.
Source text: as §1

The target of data set [6] is T3, AmpC (Escherichia coli, UniProt P00811).
T3 construct: made in house
Description: β-lactamase inhibition, nitrocefin hydrolysis. It is filed as biochemical.
Source text: as §1

Data set [7] addresses T4, OXA-48 (Klebsiella pneumoniae, UniProt Q6XEC0).
T4 construct: Genes encoding OXA-48 (residues 23–265) and VIM-2 (residues 27–266) were custom-synthesized; made in house
Kind of data set: β-lactamase inhibition, nitrocefin hydrolysis. It is filed as biochemical. The following applies: nitrocefin substrate; read-out: β-Lactamases, IC50 OXA-48.
Source text: as §1

Data set [8] has as its target T5, KPC-2 (Klebsiella pneumoniae, UniProt Q9F663).
T5 construct: purchased LifeSpan Biosciences, Inc. LS-G26598
Kind of data set: β-lactamase inhibition, nitrocefin hydrolysis. It is filed as biochemical. As to conditions: nitrocefin substrate; read-out: β-Lactamases, IC50 KPC-2.
Source text: as §1

T3 sequence (P00811 20-377): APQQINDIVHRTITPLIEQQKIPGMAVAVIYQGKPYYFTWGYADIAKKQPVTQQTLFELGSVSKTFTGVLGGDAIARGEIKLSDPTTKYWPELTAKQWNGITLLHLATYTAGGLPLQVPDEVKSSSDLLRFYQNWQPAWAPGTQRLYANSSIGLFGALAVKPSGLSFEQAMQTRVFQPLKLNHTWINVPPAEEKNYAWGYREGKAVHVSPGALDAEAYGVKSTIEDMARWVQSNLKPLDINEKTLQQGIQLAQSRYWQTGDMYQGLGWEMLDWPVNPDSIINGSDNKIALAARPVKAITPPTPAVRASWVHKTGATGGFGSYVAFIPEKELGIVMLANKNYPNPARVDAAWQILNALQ
T5 sequence (Q9F663 25-293, looked up): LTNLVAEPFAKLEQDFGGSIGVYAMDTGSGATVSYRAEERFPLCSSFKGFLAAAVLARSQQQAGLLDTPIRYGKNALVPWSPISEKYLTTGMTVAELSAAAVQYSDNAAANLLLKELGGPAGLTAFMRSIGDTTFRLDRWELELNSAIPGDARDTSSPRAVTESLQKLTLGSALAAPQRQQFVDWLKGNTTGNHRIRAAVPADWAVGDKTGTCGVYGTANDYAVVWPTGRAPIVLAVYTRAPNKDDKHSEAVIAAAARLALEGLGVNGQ
T1 sequence (C7C422 29-270, looked up, species assumed): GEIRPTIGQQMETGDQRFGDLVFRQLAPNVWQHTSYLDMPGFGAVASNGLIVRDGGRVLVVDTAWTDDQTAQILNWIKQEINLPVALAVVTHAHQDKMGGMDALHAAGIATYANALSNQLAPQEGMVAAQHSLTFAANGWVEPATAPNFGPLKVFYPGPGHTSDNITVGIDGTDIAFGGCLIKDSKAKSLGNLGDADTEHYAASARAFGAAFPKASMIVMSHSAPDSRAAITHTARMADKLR
T4 sequence (Q6XEC0 23-265 limits assumed): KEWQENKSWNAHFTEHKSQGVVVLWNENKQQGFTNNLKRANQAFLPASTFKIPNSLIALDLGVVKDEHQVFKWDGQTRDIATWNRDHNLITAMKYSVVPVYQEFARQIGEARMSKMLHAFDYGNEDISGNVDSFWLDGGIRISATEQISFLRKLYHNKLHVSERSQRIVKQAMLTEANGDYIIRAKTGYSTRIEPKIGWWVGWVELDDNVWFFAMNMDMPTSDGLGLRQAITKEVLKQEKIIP

For `O=c1c(OCCC2CCCCC2)c(-c2ccc(F)c(F)c2)oc2cc(O)cc(O)c12` [Compound 27], the “EtBr fluorescence (accumulation)” value in data set [1] is listed as “significant increase in EtBr accumulation”. Moreover, the cytotoxic effects entry in data set [2] is given as “no cytotoxic effects”. Moreover, the IC50 in data set [3] is 10.1 µM; in data set [5], 4.4 µM; in data set [6], 15.3 µM; in data set [7], 6.3 µM; in data set [8] it was 11.3 µM. Also, the “strains with more than a four-fold MIC reduction (synergistic effect) of ATM” value in data set [4] (21 MBL-producing P. aeruginosa clinical strains, combination with ATM) is 19 out of 21. Besides, in data set [4] (Pseudomonas aeruginosa, MBL-producing P. aeruginosa clinical isolates, no activity up to this concentration, read-out: antimicrobial activity (MIC) of the compound alone), the MIC is over 512 µg/mL.
